{
  "source": "patent US10772900B2",
  "about": "“Drug target for treating veterinary infections and methods of using same” (THE TRUSTEES OF THE UNIVERSITY OF PENNSYLVANIA, priority 2016, dated 2020)",
  "key": {"[1]": {"test_system": "S. schleiferi", "assay": "MIC and MBC assays in Mueller-Hinton broth", "assay_type": "cell-based, Staphylococcus schleiferi", "procedure": "(§1) The minimal inhibitory concentration (MIC) of various antimicrobials (amoxicillin-clavulanic acid, ampicillin, cefazolin, chloramphenicol, ciprofloxacin, clindamycin, erythromycin, gentamicin, imipenem, oxacillin, penicillin, rifampin, tetracycline, trimethoprim-sulfamethoxazole, and vancomycin) was determined via broth microdilution on a MicroScan Walkaway 40 PC20 Gram-positive combo-panel (Dade Behring, Sacramento, Calif.). Enrofloxacin and marbofloxacin susceptibilities were determined via Kirby-Bauer disk diffusion as these drugs were not available on the pre-configured commercial test panel. Fosmidomycin MIC assays were performed following clinical laboratory standards. Fosmidomycin (Sigma, St. Louis, USA) was filter-sterilized with a […] filter (Pall Corporation, Ann Arbor, USA) and was serially 2-fold diluted in a concentration range of 40.96-0.25 mg/mL. Tubes containing 1 mL Mueller-Hinton broth (Sigma) were inoculated with 5×10^5 colony forming units/mL. 50 μL of the appropriate fosmidomycin concentration was added to each tube containing the starter culture, and was incubated at 37° C. overnight with shaking at 250 rpm for 18-20 hours. The MICS were determined by visual inspection. The minimum bactericidal concentration (MBC) was determined by plating 200 μL of the drug-treated cultures onto Mueller-Hinton agar plates (Remel, Lenexa, USA). The lowest concentration at which there was no growth after a 24-hour incubation at 37° C. was determined to be the MBC. For the plate-based fosmidomycin growth assay, overnight cultures of Staphylococcus species grown in Mueller-Hinton broth were sub-cultured to Mueller-Hinton agar plates containing 50 μg/mL fosmidomycin and were incubated for 24 hours at 37° C. All assays were performed and the results were interpreted using Clinical Laboratory Standards Institute guidelines (CLSI. (2013) Approved Standard-Fourth Edition. Clinical and Laboratory Standards Institute, Wayne, Pa., USA)."}, "[2]": {"test_system": "S. pseudintermedius", "assay": "plate-based fosmidomycin growth assay", "assay_type": "cell-based, Staphylococcus pseudintermedius", "settings": "50 μg/mL fosmidomycin, Mueller-Hinton agar, 24 hours at 37° C.", "procedure": "as §1, with “50 μL of the appropriate fosmidomycin concentration was added to each tube containing the starter culture, and was incubated at 37° C. overnight with shaking at 250 rpm for 18-20 hours.” left out, “For the plate-based fosmidomycin growth assay, overnight cultures of Staphylococcus species grown in Mueller-Hinton broth were sub-cultured to Mueller-Hinton agar plates containing 50 μg/mL fosmidomycin and were incubated for 24 hours at 37° C. All assays were performed and the results were interpreted using Clinical Laboratory Standards Institute guidelines (CLSI. (2013) Approved Standard-Fourth Edition. Clinical and Laboratory Standards Institute, Wayne, Pa., USA).” left out"}, "[3]": {"assay": "fosmidomycin safety trial for otic application in dogs", "assay_type": "in vivo, dog", "settings": "100 micrograms in sterile water twice daily to both ears, 10 days", "procedure": "FIGS. 7A-7C are a series of plots illustrating the outcome of a fosmidomycin safety trial for otic application in dogs. Five colony dogs were used in the safety study. Four of the five dogs were homozygous for ectodermal dysplasia, while the remaining dog was a carrier (heterozygote). Each dog was treated with 100 micrograms of fosmidomycin resuspended in water and applied twice daily to both ears. Pain and inflammation were assessed using the Short Form of the Glasgow Composite Pain Scale (FIG. 7A) and the Otitis Index Score (FIG. 7B and FIG. 7C), respectively. Clinical scoring was carried out prior to fosmidomycin treatment (“pre”), each day of drug application for 10 days, and one day after the cessation of treatment (“post”). Bars represent the mean and standard deviation of scores for the group of 5 dogs at each timepoint. Dotted lines represent field-standard thresholds for clinically significant pain or inflammation.\nFive research dogs were used in a safety study testing otic application of fosmidomycin. Four of the five dogs were homozygous for ectodermal dysplasia, while the remaining dog was a carrier (heterozygote). […] Pain and inflammation were assessed using the Short Form of the Glasgow Composite Pain Scale (FIG. 7A) and the Otitis Index Score (FIG. 7B and FIG. 7C), respectively. […]"}, "[4]": {"test_system": "S. pseudintermedius", "assay": "MIC and MBC assays in Mueller-Hinton broth", "assay_type": "cell-based, Staphylococcus pseudintermedius", "procedure": "as §1, with “50 μL of the appropriate fosmidomycin concentration was added to each tube containing the starter culture, and was incubated at 37° C. overnight with shaking at 250 rpm for 18-20 hours.” left out, “For the plate-based fosmidomycin growth assay, overnight cultures of Staphylococcus species grown in Mueller-Hinton broth were sub-cultured to Mueller-Hinton agar plates containing 50 μg/mL fosmidomycin and were incubated for 24 hours at 37° C. All assays were performed and the results were interpreted using Clinical Laboratory Standards Institute guidelines (CLSI. (2013) Approved Standard-Fourth Edition. Clinical and Laboratory Standards Institute, Wayne, Pa., USA).” left out"}, "[5]": {"test_system": "S. epidermidis", "assay": "MIC and MBC assays in Mueller-Hinton broth", "assay_type": "cell-based", "settings": "Staphylococcus epidermidis, 37° C., 18-20 hours, read-out: MIC (concentration at which bacteria still grew normally)", "procedure": "as §1"}, "[6]": {"test_system": "S. aureus", "assay": "MIC and MBC assays in Mueller-Hinton broth", "assay_type": "cell-based", "settings": "Staphylococcus aureus, 37° C., 18-20 hours, read-out: MIC (concentration at which bacteria still grew normally)", "procedure": "as §1"}, "[7]": {"test_system": "S. lugdunensis", "assay": "MIC and MBC assays in Mueller-Hinton broth", "assay_type": "cell-based", "settings": "Staphylococcus lugdunensis, 37° C., 18-20 hours, read-out: MIC (concentration at which bacteria still grew normally)", "procedure": "as §1"}, "[8]": {"test_system": "Plasmodium falciparum", "settings": "cited from earlier work"}, "[9]": {"test_system": "S. aureus", "assay": "plate-based fosmidomycin growth assay", "assay_type": "cell-based, Staphylococcus aureus", "settings": "50 μg/mL fosmidomycin, Mueller-Hinton agar, 24 hours at 37° C.", "procedure": "as §1, with “50 μL of the appropriate fosmidomycin concentration was added to each tube containing the starter culture, and was incubated at 37° C. overnight with shaking at 250 rpm for 18-20 hours.” left out, “For the plate-based fosmidomycin growth assay, overnight cultures of Staphylococcus species grown in Mueller-Hinton broth were sub-cultured to Mueller-Hinton agar plates containing 50 μg/mL fosmidomycin and were incubated for 24 hours at 37° C. All assays were performed and the results were interpreted using Clinical Laboratory Standards Institute guidelines (CLSI. (2013) Approved Standard-Fourth Edition. Clinical and Laboratory Standards Institute, Wayne, Pa., USA).” left out"}, "[10]": {"test_system": "S. schleiferi", "assay": "plate-based fosmidomycin growth assay", "assay_type": "cell-based, Staphylococcus schleiferi", "settings": "50 μg/mL fosmidomycin, Mueller-Hinton agar, 24 hours at 37° C.", "procedure": "as §1, with “50 μL of the appropriate fosmidomycin concentration was added to each tube containing the starter culture, and was incubated at 37° C. overnight with shaking at 250 rpm for 18-20 hours.” left out, “For the plate-based fosmidomycin growth assay, overnight cultures of Staphylococcus species grown in Mueller-Hinton broth were sub-cultured to Mueller-Hinton agar plates containing 50 μg/mL fosmidomycin and were incubated for 24 hours at 37° C. All assays were performed and the results were interpreted using Clinical Laboratory Standards Institute guidelines (CLSI. (2013) Approved Standard-Fourth Edition. Clinical and Laboratory Standards Institute, Wayne, Pa., USA).” left out"}, "[11]": {"test_system": "S. sciuri", "assay": "MIC and MBC assays in Mueller-Hinton broth", "assay_type": "cell-based, Staphylococcus sciuri", "procedure": "as §1, with “50 μL of the appropriate fosmidomycin concentration was added to each tube containing the starter culture, and was incubated at 37° C. overnight with shaking at 250 rpm for 18-20 hours.” left out, “For the plate-based fosmidomycin growth assay, overnight cultures of Staphylococcus species grown in Mueller-Hinton broth were sub-cultured to Mueller-Hinton agar plates containing 50 μg/mL fosmidomycin and were incubated for 24 hours at 37° C. All assays were performed and the results were interpreted using Clinical Laboratory Standards Institute guidelines (CLSI. (2013) Approved Standard-Fourth Edition. Clinical and Laboratory Standards Institute, Wayne, Pa., USA).” left out"}, "[12]": {"test_system": "Plasmodium falciparum", "settings": "clinical trials, malaria, administered alone or in combination with clindamycin; cited from earlier work"}, "[13]": {"test_system": "S. epidermidis", "assay": "plate-based fosmidomycin growth assay", "assay_type": "cell-based, Staphylococcus epidermidis", "settings": "50 μg/mL fosmidomycin, Mueller-Hinton agar, 24 hours at 37° C.", "procedure": "as §1, with “50 μL of the appropriate fosmidomycin concentration was added to each tube containing the starter culture, and was incubated at 37° C. overnight with shaking at 250 rpm for 18-20 hours.” left out, “For the plate-based fosmidomycin growth assay, overnight cultures of Staphylococcus species grown in Mueller-Hinton broth were sub-cultured to Mueller-Hinton agar plates containing 50 μg/mL fosmidomycin and were incubated for 24 hours at 37° C. All assays were performed and the results were interpreted using Clinical Laboratory Standards Institute guidelines (CLSI. (2013) Approved Standard-Fourth Edition. Clinical and Laboratory Standards Institute, Wayne, Pa., USA).” left out"}, "[14]": {"settings": "plated on Mueller-Hinton agar, 24-hour incubation at 37° C."}},
  "data": [
    {"smiles": "O=CN(O)CCCP(=O)(O)O", "note": "[fosmidomycin]", "values": [
      {"measurement": "inhibition of multi-drug resistant strain", "setting": "[1]; S. schleiferi strain 1360-13, multi-drug resistant phenotype", "result": "inhibited"},
      {"measurement": "MIC", "setting": "[1]; Staphylococcus schleiferi, Mueller-Hinton broth, 37° C., 18-20 hours, read-out: MIC (inhibited by concentrations as low as)", "result": "≥ 0.5", "unit": "µg/mL"},
      {"measurement": "MBC (killed by concentrations of)", "setting": "[1]; [14]", "result": "4 to 16", "unit": "µg/mL"},
      {"measurement": "growth on agar plates containing fosmidomycin", "setting": "[2]", "result": "completely restricted growth"},
      {"measurement": "inflammation score (Otitis Index Score)", "setting": "[3]", "result": "clinically insignificant"},
      {"measurement": "pain score (Short Form of the Glasgow Composite Pain Scale)", "setting": "[3]", "result": "clinically insignificant"},
      {"measurement": "MIC", "setting": "[4]; Staphylococcus pseudintermedius, Mueller-Hinton broth, 37° C., 18-20 hours, read-out: MIC (inhibited by concentrations as low as)", "result": "≥ 0.5", "unit": "µg/mL"},
      {"measurement": "MBC (killed by concentrations of)", "setting": "[4]; [14]", "result": "4 to 16", "unit": "µg/mL"},
      {"measurement": "MIC", "setting": "[5]", "result": "> 256", "unit": "µg/mL"},
      {"measurement": "MIC", "setting": "[6]", "result": "> 256", "unit": "µg/mL"},
      {"measurement": "MIC", "setting": "[7]", "result": "> 256", "unit": "µg/mL"},
      {"measurement": "killing the parasite in culture", "setting": "[8]", "result": "effective"},
      {"measurement": "growth on agar plates containing fosmidomycin", "setting": "[9]", "result": "grew"},
      {"measurement": "growth on agar plates containing fosmidomycin", "setting": "[10]", "result": "completely restricted growth"},
      {"measurement": "MIC", "setting": "[11]; Mammaliicoccus sciuri, Mueller-Hinton broth, 37° C., 18-20 hours, read-out: MIC (inhibited by concentrations as low as)", "result": "≥ 0.5", "unit": "µg/mL"},
      {"measurement": "MBC (killed by concentrations of)", "setting": "[11]; [14]", "result": "4 to 16", "unit": "µg/mL"},
      {"measurement": "cure rates", "setting": "[12]", "result": "85-100%"},
      {"measurement": "growth on agar plates containing fosmidomycin", "setting": "[13]", "result": "grew"}
    ]}
  ]
}
